The text below walks through data of US20230117034A1, “PYRAZOLOTRIAZINES” (Bayer Aktiengesellschaft, priority 2019, published 2023).

SMILES strings stand for the structures. Some results are limits rather than exact numbers.

One assay concerns the target T1, CDK2/CycE (Homo sapiens, UniProt P24941).
T1 construct: purchased ProQinase GmbH (Freiburg, Germany); host or cells: insect cells (Sf9)
The assay is described as follows: CDK2/CycE kinase assay (TR-FRET, 2 mM ATP). The assay is classed as biochemical. To be noted: 2 mM ATP (high ATP); median; read-out: CDK2/CyclinE, 2 mM ATP (high ATP), IC50 (median). The procedure, abridged: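 GST-tagged human CDK2 and CycE from Sf9 cells, about 10 ng/ml, pre-incubated 15 min at 22 °C with compound in Tris/HCl pH 8.0 buffer. Reaction with 2 mM ATP and 0.75 µM biotinylated peptide for 25 min at 22 °C. Phospho-RB antibody TR-FRET (665/620 nm ratio) read after 1 h; data normalised to no-inhibitor and no-enzyme controls.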
(Time-resolved FRET reads energy transfer from a long-lived donor to a nearby acceptor.)

In assay [1] the test system is CAL-120, human breast adenocarcinoma cells. The assay is described as follows: Proliferation assay CAL-120 (crystal violet, 4 days). To be noted: Homo sapiens, CAL-120, 96 h, CAL-120 cells, median, read-out: Prolif-CAL-120, IC50-[mol/l] (median). The assay is classed as cell-based. The procedure, abridged: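 Plated 4,000 cells/well, 10% FCS; 24 h later treated 0.01-10 µmol/L cpd (DMSO 0.1%), 4 d. Fix glutaraldehyde, stain 0.1% crystal violet pH 3.0, elute acetic acid, A595. Normalized to t0 plate/untreated; 4-param IC50.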

Assay [2] deals with T2, CYCLIN K (nuclear staining in CAL-120 cells) (Homo sapiens, UniProt O75909).
T2 construct: endogenous in cells; host or cells: CAL-120 human breast cancer cells (DSMZ ACC 459)
T2 sequence (O75909 whole entry): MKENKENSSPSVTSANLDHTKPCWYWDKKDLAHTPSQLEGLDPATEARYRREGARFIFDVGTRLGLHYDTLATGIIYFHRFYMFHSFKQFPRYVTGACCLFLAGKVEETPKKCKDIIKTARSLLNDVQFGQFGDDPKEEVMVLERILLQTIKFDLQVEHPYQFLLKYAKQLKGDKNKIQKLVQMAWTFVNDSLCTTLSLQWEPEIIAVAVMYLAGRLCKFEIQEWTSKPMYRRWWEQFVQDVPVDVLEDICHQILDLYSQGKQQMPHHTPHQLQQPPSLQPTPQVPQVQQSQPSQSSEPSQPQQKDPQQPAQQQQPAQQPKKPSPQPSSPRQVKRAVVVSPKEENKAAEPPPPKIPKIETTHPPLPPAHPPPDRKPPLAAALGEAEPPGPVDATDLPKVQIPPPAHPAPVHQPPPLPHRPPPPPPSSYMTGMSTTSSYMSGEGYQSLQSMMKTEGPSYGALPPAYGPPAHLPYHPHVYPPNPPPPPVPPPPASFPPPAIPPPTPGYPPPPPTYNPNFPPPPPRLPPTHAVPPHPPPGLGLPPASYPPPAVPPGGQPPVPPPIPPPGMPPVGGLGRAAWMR
T2 sequence (Q9NYV4 whole entry partner): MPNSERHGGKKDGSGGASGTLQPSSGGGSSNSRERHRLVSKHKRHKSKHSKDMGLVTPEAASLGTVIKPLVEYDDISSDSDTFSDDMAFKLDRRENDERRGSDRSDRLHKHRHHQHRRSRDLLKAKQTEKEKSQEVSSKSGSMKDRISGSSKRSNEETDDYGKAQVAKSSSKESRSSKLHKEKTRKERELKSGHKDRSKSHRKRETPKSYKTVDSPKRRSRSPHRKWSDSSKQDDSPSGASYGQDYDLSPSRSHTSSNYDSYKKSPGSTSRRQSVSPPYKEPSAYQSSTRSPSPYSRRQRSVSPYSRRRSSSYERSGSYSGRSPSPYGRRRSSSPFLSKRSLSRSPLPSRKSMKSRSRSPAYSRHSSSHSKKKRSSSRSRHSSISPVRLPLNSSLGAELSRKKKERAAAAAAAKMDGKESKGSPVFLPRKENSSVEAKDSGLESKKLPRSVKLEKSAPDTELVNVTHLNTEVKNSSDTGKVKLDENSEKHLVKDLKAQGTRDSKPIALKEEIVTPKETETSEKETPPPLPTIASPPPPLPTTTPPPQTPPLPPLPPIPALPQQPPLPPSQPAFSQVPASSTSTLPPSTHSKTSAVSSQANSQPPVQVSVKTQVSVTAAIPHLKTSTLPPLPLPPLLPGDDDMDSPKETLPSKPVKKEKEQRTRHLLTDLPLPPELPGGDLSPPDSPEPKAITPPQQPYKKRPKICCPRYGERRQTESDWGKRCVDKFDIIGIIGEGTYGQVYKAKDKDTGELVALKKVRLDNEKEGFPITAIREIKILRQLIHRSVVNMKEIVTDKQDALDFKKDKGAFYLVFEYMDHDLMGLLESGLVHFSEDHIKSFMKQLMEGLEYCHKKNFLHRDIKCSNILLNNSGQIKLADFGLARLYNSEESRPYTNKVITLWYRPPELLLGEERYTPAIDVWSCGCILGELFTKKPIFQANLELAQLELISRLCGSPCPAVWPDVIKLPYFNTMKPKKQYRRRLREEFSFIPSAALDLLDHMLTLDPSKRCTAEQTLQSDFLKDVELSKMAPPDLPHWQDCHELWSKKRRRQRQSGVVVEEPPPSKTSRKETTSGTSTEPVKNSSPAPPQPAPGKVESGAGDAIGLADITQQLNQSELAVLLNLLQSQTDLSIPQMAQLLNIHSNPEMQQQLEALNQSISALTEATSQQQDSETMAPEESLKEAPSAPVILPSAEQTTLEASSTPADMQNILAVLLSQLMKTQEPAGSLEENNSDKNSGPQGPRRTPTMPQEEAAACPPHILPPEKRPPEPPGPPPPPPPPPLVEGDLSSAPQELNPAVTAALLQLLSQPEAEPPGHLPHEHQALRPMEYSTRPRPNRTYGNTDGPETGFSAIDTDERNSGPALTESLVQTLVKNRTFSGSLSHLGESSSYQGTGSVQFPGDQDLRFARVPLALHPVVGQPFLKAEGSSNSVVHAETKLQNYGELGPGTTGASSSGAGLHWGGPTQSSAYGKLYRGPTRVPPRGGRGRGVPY
The assay can be described thus: CYCLIN K nuclear protein level: immunofluorescence high content analysis (CAL-120). The assay is classed as cell-based. To be noted: 24 h, 50% reduction of nuclear CCNK staining intensity, median, read-out: CYCLIN K degradation IF, DC50-[mol/l] (median). Summed up:
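CAL-120 breast cancer cells treated in dose-response for 24 h at 37 °C, PFA-fixed and immunostained for cyclin K with Hoechst counterstain. Confocal imaging quantified nuclear intensity; DC50 is the concentration giving 50% reduction of nuclear CCNK staining, normalized to DMSO and control.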

For the molecule `OCC1COCCN1c1nc(NCc2nc3ccccc3[nH]2)n2ncc(Br)c2n1` (centres unmarked) [Example 67, (4-{4-[(1H-benzimidazol-2-ylmethyl)amino]-8-bromopyrazolo[1,5-a][1,3,5]triazin-2-yl}morpholin-3-yl)methanol], the IC50 turned out to be 1.86 µM on CDK2/CycE and 20.8 nM in assay [1]. The DC50 in assay [2] was 0.814 nM.

With `FC(F)(F)Oc1cccc(-c2cnc(CNc3nc(N4CCOCC4)nc4c(Br)cnn34)[nH]2)c1` [Example 82, 8-bromo-2-(morpholin-4-yl)-N-({5-[3-(trifluoromethoxy)phenyl]-1H-imidazol-2-yl}methyl)pyrazolo[1,5-a][1,3,5]triazin-4-amine], the IC50 on CDK2/CycE was found to be 11.6 µM; in assay [1], 85.2 nM. Moreover, the DC50 in assay [2] worked out at 14.2 nM.

Consider `FC(F)(F)c1ccccc1-c1cnc(CNc2nc(N3CCOCC3)nc3c(Br)cnn23)[nH]1` [Example 88, 8-bromo-2-(morpholin-4-yl)-N-({5-[2-(trifluoromethyl)phenyl]-1H-imidazol-2-yl}methyl)pyrazolo[1,5-a][1,3,5]triazin-4-amine], for which the IC50 turned out to be 8.55 µM on CDK2/CycE and 14.2 nM in assay [1]. Also, the DC50 in assay [2] worked out at 1.16 nM.

As to `Brc1cnn2c(NCc3nnc(-c4ccccc4)[nH]3)nc(N3CC4(COC4)C3)nc12` [Example 65, 8-bromo-2-(2-oxa-6-azaspiro[3.3]heptan-6-yl)-N-[(5-phenyl-4H-1,2,4-triazol-3-yl)methyl]pyrazolo[1,5-a][1,3,5]triazin-4-amine], the IC50 on CDK2/CycE is > 20 µM; in assay [1] it was 10 nM. In addition, in assay [2], the DC50 is 16.4 nM.

Regarding `CCc1cnn2c(NCc3nc4c(F)c(F)ccc4[nH]3)nc(N3CCN(C)CC3)nc12.O=CO` [Example 435, formic acid N-[(4,5-difluoro-1H-benzimidazol-2-yl)methyl]-8-ethyl-2-(4-methylpiperazin-1-yl)pyrazolo[1,5-a][1,3,5]triazin-4-amine], the values for the IC50 (at CDK2/CycE; in assay [1]) were 5 µM and 1.76 nM, respectively. The DC50 in assay [2] was found to be 0.274 nM.

`CC(C)c1cnn2c(NCc3nc4ccccc4[nH]3)nc(N(C)C)nc12` [Example 3, N^4-[(1H-benzimidazol-2-yl)methyl]-N^2,N^2-dimethyl-8-(propan-2-yl)pyrazolo[1,5-a][1,3,5]triazine-2,4-diamine]: the IC50 at CDK2/CycE was > 20 µM.

As for `Cc1ccccc1-c1cnc(CNc2nc(N3CCOCC3)nc3c(Br)cnn23)[nH]1` [Example 85, 8-bromo-N-{[5-(2-methylphenyl)-1H-imidazol-2-yl]methyl}-2-(morpholin-4-yl)pyrazolo[1,5-a][1,3,5]triazin-4-amine], the IC50 worked out at 4.52 µM at CDK2/CycE and 26.3 nM in assay [1]. Moreover, the DC50 in assay [2] came out at 1.2 nM.

Consider `Brc1cnn2c(NCc3nnc(-c4ccccc4)[nH]3)nc(N3CCCC3)nc12` [Example 64, 8-bromo-N-[(5-phenyl-4H-1,2,4-triazol-3-yl)methyl]-2-(pyrrolidin-1-yl)pyrazolo[1,5-a][1,3,5]triazin-4-amine], for which the IC50 at CDK2/CycE turned out to be 4.66 µM; in assay [1], 36.1 nM. Further, the DC50 in assay [2] was found to be 4.89 nM.

For `CC(C)c1cnn2c(NCc3nc4ccccc4[nH]3)nc(N3CCOCC3)nc12` [Example 1, N-[(1H-benzimidazol-2-yl)methyl]-2-(morpholin-4-yl)-8-(propan-2-yl)pyrazolo[1,5-a][1,3,5]triazin-4-amine], at CDK2/CycE, the IC50 was determined as 5.27 µM. Besides, the DC50 in assay [2] amounted to 11.1 nM.

`Clc1ccc(-c2cnc(CNc3nc(N4CCOCC4)nc4c(Br)cnn34)[nH]2)cc1` [Example 72, 8-bromo-N-{[5-(4-chlorophenyl)-1H-imidazol-2-yl]methyl}-2-(morpholin-4-yl)pyrazolo[1,5-a][1,3,5]triazin-4-amine]: the figures for the IC50 (on CDK2/CycE; in assay [1]) were 4.35 µM and 32.4 nM, respectively. Further, the DC50 in assay [2] was 11.4 nM.

For the molecule `CC(C)c1cnn2c(NCc3nc4ccccc4[nH]3)nc(N3CCN(C)CC3)nc12` [Example 2, N-[(1H-benzimidazol-2-yl)methyl]-2-(4-methylpiperazin-1-yl)-8-(propan-2-yl)pyrazolo[1,5-a][1,3,5]triazin-4-amine], the IC50 at CDK2/CycE was determined as 11.1 µM; in assay [1], 31.2 nM. Moreover, the DC50 in assay [2] is 5.04 nM.

As for `O[C@@H]1CCN(c2nc(NCc3nc4ccccc4[nH]3)n3ncc(Br)c3n2)C1` [Example 202, (3R)-1-(4-{[(1H-benzimidazol-2-yl)methyl]amino}-8-bromopyrazolo[1,5-a][1,3,5]triazin-2-yl)pyrrolidin-3-ol], the IC50 at CDK2/CycE was 10.5 µM; in assay [1], 131 nM.

For `Fc1ccccc1-c1nnc(CNc2nc(N3CCOCC3)nc3c(Br)cnn23)[nH]1` [Example 75, 8-bromo-N-{[5-(2-fluorophenyl)-4H-1,2,4-triazol-3-yl]methyl}-2-(morpholin-4-yl)pyrazolo[1,5-a][1,3,5]triazin-4-amine], the IC50 is 2.5 µM on CDK2/CycE and 53.2 nM in assay [1]. For the same molecule, the DC50 in assay [2] stood at 8.7 nM.

For `Brc1cnn2c(NCc3ncc(-c4ccccn4)[nH]3)nc(N3CCOCC3)nc12` [Example 90, 8-bromo-2-(morpholin-4-yl)-N-{[5-(pyridin-2-yl)-1H-imidazol-2-yl]methyl}pyrazolo[1,5-a][1,3,5]triazin-4-amine], the results for the IC50 (on CDK2/CycE; in assay [1]) were 1.79 µM and 17.4 nM, respectively. Further, in assay [2], the DC50 is 0.357 nM.

Turning to `Fc1cccc(-c2cnn3c(NCc4nc5ccccc5[nH]4)nc(N4CCOCC4)nc23)c1` [Example 91, N-[(1H-benzimidazol-2-yl)methyl]-8-(3-fluorophenyl)-2-(morpholin-4-yl)pyrazolo[1,5-a][1,3,5]triazin-4-amine], the IC50 at CDK2/CycE was > 20 µM; in assay [1], 105 nM. Moreover, the DC50 in assay [2] worked out at 19.6 nM.

As for `CN1CCN(c2nc(NCc3nc4cc(Cl)c(Cl)cc4[nH]3)n3ncc(C4CC4)c3n2)CC1` [Example 305, 8-cyclopropyl-N-[(5,6-dichloro-1H-benzimidazol-2-yl)methyl]-2-(4-methylpiperazin-1-yl)pyrazolo[1,5-a][1,3,5]triazin-4-amine], the IC50 at CDK2/CycE was > 20 µM; in assay [1] it was 4.44 nM. In assay [2], the DC50 is 0.972 nM.

For the molecule `Clc1ccccc1-c1nnc(CNc2nc(N3CCOCC3)nc3c(Br)cnn23)[nH]1` [Example 69, 8-bromo-N-{[5-(2-chlorophenyl)-4H-1,2,4-triazol-3-yl]methyl}-2-(morpholin-4-yl)pyrazolo[1,5-a][1,3,5]triazin-4-amine], the IC50 at CDK2/CycE was 12.1 µM; in assay [1], 333 nM.

As to `COC(=O)C1CCN(c2nc(NCc3nc4ccccc4[nH]3)n3ncc(Br)c3n2)CC1` [Example 63, methyl 1-(4-{[(1H-benzimidazol-2-yl)methyl]amino}-8-bromopyrazolo[1,5-a][1,3,5]triazin-2-yl)piperidine-4-carboxylate], the IC50 was found to be 6.49 µM at CDK2/CycE and 36 nM in assay [1]. The DC50 in assay [2] was 4.09 nM.

Turning to `C[C@@H]1CN(c2nc(NCc3nnc(-c4ccccc4)[nH]3)n3ncc(Br)c3n2)C[C@H](C)O1` [Example 78, 8-bromo-2-[(2R,6S)-2,6-dimethylmorpholin-4-yl]-N-[(5-phenyl-4H-1,2,4-triazol-3-yl)methyl]pyrazolo[1,5-a][1,3,5]triazin-4-amine], the results for the IC50 (at CDK2/CycE; in assay [1]) were 4.28 µM and 25.7 nM, respectively. Further, the DC50 in assay [2] amounted to 1.61 nM.

Consider `CC(C)c1cnn2c(NCc3nc4ccccc4[nH]3)nc(N3CCOC(C)(C)C3)nc12` [Example 12, N-[(1H-benzimidazol-2-yl)methyl]-2-(2,2-dimethylmorpholin-4-yl)-8-(propan-2-yl)pyrazolo[1,5-a][1,3,5]triazin-4-amine], for which the IC50 on CDK2/CycE was > 16.5 µM.

Regarding `FC(F)(F)Oc1ccccc1-c1nnc(CNc2nc(N3CCOCC3)nc3c(Br)cnn23)[nH]1` [Example 74, 8-bromo-2-(morpholin-4-yl)-N-({5-[2-(trifluoromethoxy)phenyl]-4H-1,2,4-triazol-3-yl}methyl)pyrazolo[1,5-a][1,3,5]triazin-4-amine], the IC50 came out at 18.2 µM at CDK2/CycE and 311 nM in assay [1].

With `COC(=O)C1CCN(c2nc(NCc3nnc(-c4ccccc4)[nH]3)n3ncc(Br)c3n2)CC1` [Example 77, methyl 1-(8-bromo-4-{[(5-phenyl-4H-1,2,4-triazol-3-yl)methyl]amino}pyrazolo[1,5-a][1,3,5]triazin-2-yl)piperidine-4-carboxylate], the values for the IC50 (on CDK2/CycE; in assay [1]) were 11.1 µM and 338 nM, respectively.

In the case of `Fc1ccc2[nH]c(CNc3nc(N4CCOCC4)nc4c(-c5cnn(C(F)F)c5)cnn34)nc2c1F` [Example 422, N-[(4,5-difluoro-1H-benzimidazol-2-yl)methyl]-8-[1-(difluoromethyl)-1H-pyrazol-4-yl]-2-(morpholin-4-yl)pyrazolo[1,5-a][1,3,5]triazin-4-amine], the values for the IC50 (on CDK2/CycE; in assay [1]) were > 20 µM and 6.88 nM, respectively.
